≈ marks a conversion by molar mass, not a printed value. Calls of active or inactive are those of the source. No cut-off for these calls is given here.
Assays:
Artemia = experiment: Toxicity against brine shrimp; format: organism-based; conditions: in vivo
MCF7 = experiment: Cytotoxicity against human MCF7 cells; format: functional; conditions: read-out: ED50 (the source's name)
A549 = experiment: Cytotoxicity against human A549 cells; format: functional; conditions: read-out: ED50 (the source's name)
[1] = tested on: Agrobacterium tumefaciens; experiment: Antitumor activity against Agrobacterium tumefaciens-induced crown gall tumor in potato tubers; format: functional
HT-29 = experiment: Cytotoxicity against human HT-29 cells; format: functional; conditions: read-out: ED50 (the source's name)

Compound	LC50 (Artemia) [ppm]	EC50 (MCF7) [µg/mL]	EC50 (A549) [µg/mL]	inhibition [1]	EC50 (HT-29) [µg/mL]	inhibition (INH) [1] [%]
C=CC[C@]12C=C(OC)C(=O)C=C1O[C@@H](c1cc(OC)c3c(c1)OCO3)[C@H]2C	162.1	79 (≈ 213 µM)	> 100	inactive	96.5 (≈ 261 µM)	–
COc1cccc2c1C(=O)c1c(O)c3c(c(O)c1C2=O)C[C@@](O)(C(=O)CO)C[C@@H]3O[C@H]1C[C@H](N)[C@H](O)[C@H](C)O1 [DOXORUBICIN]	4.05	0.115 (≈ 0.212 µM)	0.0292 (≈ 0.0537 µM)	–	0.0344 (≈ 0.0633 µM)	68.8
C=CC[C@@]12C[C@@H](OC)C(=O)C=C1O[C@@H](c1cc(OC)c3c(c1)OCO3)[C@H]2C [DYSODANTHIN A]	47.53	5.51 (≈ 14.8 µM)	4.23 (≈ 11.4 µM)	–	2.39 (≈ 6.42 µM)	32.2
C=CC[C@@]12C[C@@H](OC)C(=O)C=C1O[C@@H](c1cc(OC)c(OC)c(OC)c1)[C@H]2C [DYSODANTHIN B]	334.2	4.09 (≈ 10.5 µM)	3.68 (≈ 9.47 µM)	–	2.76 (≈ 7.1 µM)	52
C=CC[C@]1([C@H](C)[C@@H](OC(C)=O)c2cc(OC)c(OC)c(OC)c2)C[C@@H](OC)C=CC1=O [MEGAPHONE ACETATE]	253.6	3.66	2.59	–	0.552	48.3

From ChEMBL document CHEMBL1158980, “Bioactive neolignans from Endlicheria dysodantha” (J Nat Prod, 1991)
